The results in this text go back to patent US6649636B1, “Heteroaryl phenyl pyrazole compounds as anti-inflammatory/analgesic agents” (Pfizer Inc., priority 1999, dated 2003).

Structures are written as SMILES.

Regarding `CS(=O)(=O)c1ccc(-n2nc(C(F)(F)F)cc2-c2ccc(-c3ccco3)cc2)cn1` [Example 1, 5-[4-(2-Furyl)phenyl]-1-[2-(methylsulfonylpyridin)-5-yl]-3-trifluoromethyl-1H-pyrazole], the melting point lay within 106 to 109 °C.

Turning to `Cc1cc(-c2cc(C(F)(F)F)nn2-c2ccc(S(C)(=O)=O)cn2)ccc1-c1cscn1` [Example 2], the melting point was in the range of 179 to 182 °C.

Molecule `Cc1cc(-c2cc(C(F)(F)C(F)(F)F)nn2-c2ccc(S(C)(=O)=O)nc2)ccc1-c1cscn1` [Example 4] displayed a melting point of 120.8 °C.

Regarding `Cc1cc(-c2c(Cl)c(C(F)(F)F)nn2-c2ccc(S(C)(=O)=O)nc2)ccc1-c1cscn1` [Example 5], the melting point was 81 to 83 °C.

As to `CS(=O)(=O)c1ccc(-n2nc(C(F)(F)F)c(F)c2-c2ccc(-c3cscn3)cc2)cn1` [Example 7], the melting point was 170.5 to 171 °C.

In turn, `Cc1cc(-c2cc(C(F)(F)F)nn2-c2ccc(S(C)(=O)=O)cn2)ccc1-c1cocn1` [Example 9] returned a melting point of 154 to 155 °C.

`Cc1cc(-c2cc(C(F)(F)F)nn2-c2ccc(S(C)(=O)=O)cn2)c(C)cc1-c1cscn1` [Example 10]: the melting point fell in the range of 214 to 215 °C.

As to `Cc1cc(-c2c(C#N)cnn2-c2ccc(S(C)(=O)=O)cn2)ccc1-c1cscn1` [Example 11], the melting point fell in the range of 223 to 224 °C.

For the molecule `COC(=O)c1cc(-c2ccc(-c3cscn3)c(C)c2)n(-c2ccc(S(C)(=O)=O)cn2)n1` [Example 12], the melting point fell in the range of 144 to 145 °C.

`CCc1c(C(F)(F)F)nn(-c2ccc(S(C)(=O)=O)cn2)c1-c1ccc(-c2cscn2)c(C)c1` [Example 13] gave a melting point of 163 to 164 °C.

`Cc1cc(-c2cc(C(F)(F)F)nn2-c2ccc(S(C)(=O)=O)cn2)ccc1-c1ccco1` [Example 15] displayed a melting point of 160 to 161.1 °C.

On to `Cc1cc(-c2cc(C(F)(F)F)nn2-c2ccc(S(C)(=O)=O)cn2)ccc1-c1ccsc1` [Example 16], for which the melting point was 165 to 166 °C.

With `CS(=O)(=O)c1ccc(-n2nc(C(F)(F)F)cc2-c2ccc(-c3cscn3)c(Cl)c2)cn1` [Example 17], the melting point was 95 to 100 °C.

For the molecule `CS(=O)(=O)c1ccc(-n2nc(C(F)(F)F)cc2-c2ccc(-c3cscn3)cc2)nc1` [Example 18], the melting point is 210 to 211 °C.

On to `CS(=O)(=O)c1ccc(-n2nc(C(F)(F)F)cc2-c2ccc(-c3cscn3)c(Cl)c2)nc1` [Example 19], for which the melting point turned out to be 175.6 °C.

For the molecule `COc1cc(-c2cc(C(F)(F)F)nn2-c2ccc(S(C)(=O)=O)cn2)ccc1-c1cscn1` [Example 20], the melting point was 170 to 175 °C.

In turn, `CS(=O)(=O)c1ccc(-n2nc(C(F)(F)F)cc2-c2ccc(-c3cscn3)cc2F)nc1` [Example 21] showed a melting point of 194.3 °C.

With `CS(=O)(=O)c1ccc(-n2nc(C(F)(F)F)cc2-c2ccc(-c3cscn3)cc2Cl)nc1` [Example 22], the melting point was 166.1 °C.

Turning to `CCc1cc(-c2cc(C(F)(F)F)nn2-c2ccc(S(C)(=O)=O)cn2)ccc1-c1cscn1` [Example 23], the melting point was 165.8 °C.

`CS(=O)(=O)c1ccc(-n2nc(C(F)(F)F)cc2-c2ccc(-c3cscn3)c(F)c2)nc1` [Example 24] gave a melting point of 187.5 °C.

`Cc1cc(-c2cc(C(F)(F)F)nn2-c2ccc(S(C)(=O)=O)c(F)n2)ccc1-c1cscn1` [Example 25] registered a melting point of 158.9 °C.

Regarding `Cc1cc(-c2cc(C(F)F)nn2-c2ccc(S(C)(=O)=O)cn2)ccc1-c1cscn1` [Example 27], the melting point worked out at 156.9 °C.

`Cc1cc(-c2cc(C(F)(F)F)nn2-c2ccc(S(C)(=O)=O)cn2)ccc1-c1ncco1` [Example 28] registered a melting point of 174.5 to 176 °C.

The molecule `Cc1cc(-c2cc(C(F)(F)F)nn2-c2ccc(S(C)(=O)=O)cn2)ccc1-c1nn[nH]n1` [Example 29] showed a melting point of 241 to 242 °C.

In turn, `Cc1cc(-c2cc(C(F)(F)F)nn2-c2ccc(S(C)(=O)=O)cn2)ccc1-c1cnn[nH]1` [Example 30] came in with a melting point of 189 °C.

`Cc1nc(-c2ccc(-c3cc(C(F)(F)F)nn3-c3ccc(S(C)(=O)=O)nc3)cc2)cs1` [Example 32] returned a melting point of 176.9 °C.

Turning to `CS(=O)(=O)c1ccc(-n2nc(C(F)(F)F)cc2-c2ccc(-c3ccc(Cl)s3)cc2)cn1` [Example 34], the melting point was 155 to 156 °C.

`Cc1ccc(-c2ccc(-c3cc(C(F)(F)F)nn3-c3ccc(S(C)(=O)=O)nc3)cc2)s1` [Example 35]: the melting point was in the range of 123 to 124 °C.

`CS(=O)(=O)c1ccc(-n2nc(C(F)(F)F)cc2-c2ccc(-c3ccco3)cc2)nn1` [Example 36] gave a melting point of 209 to 212 °C.

As to `CS(=O)(=O)c1cnc(-n2nc(C(F)(F)F)cc2-c2ccc(-c3ccco3)cc2)s1` [Example 37], the melting point lay in the range of 188 to 190 °C.
